Publication PMC4070910, “Cathepsin S Signals via PAR2 and Generates a Novel Tethered Ligand Receptor Agonist” (PLoS ONE, 2014)
Entries after “also recorded” stand apart in the source; their conditions may differ.

What was measured:
[1] = tested on: PAR2; settings: cited from earlier work
Text: Proteases can activate PARs but it has been hypothesized that they can also inactivate them. […] As the cathepsin S cleavage sites identified here are downstream o ...

[2] = tested on: human PAR2; experiment: Fura-2 calcium imaging in HeLa cells transfected with PAR2 cDNA; assay type: cell-based; settings: for Concentration-effect curve, calcium-dependent response (in words): peptides 1 nM - 1 mM, triplicate, Fura-2 ratiometric imaging
Experimental: Human PAR2 cDNA was cloned as an Xho I-Hind III fragment (1206 bp) into pcDNA3.1(−). 10 µg of DNA were diluted into 0.5 ml of DMEM and mixed with 0.5 ml of DMEM containing 10 µl of Lipofectamine 2000 transfection reagent and incubated at room temperature for 20 minutes. HeLa cells were grown to confluence, trypsinized and 1×10^6 cells were pelleted in a 15 ml tube by centrifugation at 1000 rpm for 5 minutes. The DMEM-Lipofectamine 2000-DNA mixture (1 ml) was added to the cell pellet, resuspended gently and incubated at room temperature for 20 minutes. Four ml of complete DMEM with 10% FBS were added to the tube, mixed by inverting the tube several times, plated into a 96-well glass bottom plate at 20,000 cells/well, and placed in a 37°C CO2 incubator. HeLa cells transfected with vector alone or salmon sperm DNA (shown in the figures) were plated as a control. The medium was aspirated two days after transfection. Fura-2 was used as a ratiometric calcium-sensitive indicator as follows. 100 µl of complete DMEM containing 2 µM of Fura-2 were added to each well and left at room temperature in the dark for 1 hr. Following loading with Fura-2, the medium was aspirated and replaced with 90 µl of HEPES-buffered saline (20 mM HEPES, 115 mM NaCl, 5.4 mM KCl, 2 mM CaCl2, 0.8 mM MgCl2, 13.8 mM glucose, pH 7.4).
Imaging was performed using a Zeiss Axiovert 200 M microscope platform equipped with a flipping filter wheel for ratiometric imaging. Axiovision software, version 4.6 was used for image analysis of the cells which were excited at 340 nm and 380 nm. Ten µl of peptide agonist were added at 20 seconds after the start of the excitation procedure. Images were taken every 5 seconds, including at zero time, during a 3-minute period or longer if required. The software later analyzed all images taken during each excitation period. Typically, ratiometric changes were measured in 10–20 cells in each image. An average of the fluorescence of the cells in each image was calculated and plotted against time in seconds.
HeLa cells transfected with PAR2 cDNA were subjected to ratiometric imaging as described above with PAR2 peptides, SLIGRL, KVDGTS, and SLIGKVDGTS in addition to the reverse peptides LRGILS and STGDVK at concentrations from 1 nM - 1 mM. Each of the concentration-dependent readings was performed in triplicate. Maximum intensities at each of the dilutions were calculated and plotted against concentration using GraphPad/PRISM software version 6.0 (Irvine, CA). Error bars represent +/−SEM.

[3] = tested on: PKC (βII Ser660) phosphorylation in PAR2-transfected HeLa cells; experiment: Western blot for p-PKC (Ser660) in PAR2-transfected HeLa cells; assay type: cell-based, human; settings: 10 minutes, room temperature; SLIGRL 10 µM, SLIGKVDGTS 10 µM, KVDGTS 100 µM, cathepsin S 1 µM
Experimental: HeLa cells were transfected with PAR2 plasmid DNA as described above. Untransfected HeLa cells were plated as a control. Forty-eight hours after transfection, cells were rinsed with PBS three times. Transfected HeLa cells were incubated with either SLIGRL (10 µM), SLIGKVDGTS (10 µM), KVDGTS (100 µM), or cathepsin S (1 µM) at room temperature for 10 minutes. Untransfected HeLa cells were treated with SLIGRL (10 µM) in a similar manner. A subset of transfected HeLa cells remained untreated and served as a negative control. After incubation, cells were harvested, pelleted and lysed by sequential freeze-thaw cycles. Cell lysates were centrifuged at 4°C for 15 minutes. Supernatants were collected and protein concentrations were determined by Bradford assay. Equal amounts of cell lysates were loaded onto NuPAGE Novex Bis-Tris mini gels, electrophoresed and transferred to nitrocellulose membranes using standard protocols. The blot was first probed with rabbit anti-phospho-PKC (βII Ser660) antibody (Cell Signalling Technology, Danvers, MA), and later reprobed with a mouse anti-actin antibody to identify the control actin band at 42 kDa. Primary antibodies were labeled with HRP-conjugated donkey anti-rabbit antibody and HRP-conjugated donkey anti-mouse antibody, respectively, followed by detection of the position of the antigen on the blot.

[4] = tested on: cathepsin S in keratinocytes; settings: cited from earlier work
Text: We have identified a new peptide ligand generated by cathepsin S cleavage of PAR2. […] Our findings support a mechanism by which an N-terminal tethered ligand generated by cathepsin S cleavage might propagate PAR2 signaling in keratinocytes, or other target cells, surrounding a primary focus of inflammation. A possible scenario with respect to cutaneous inflammation could be as follows: IFN-γ, ...

[5] = tested on: cathepsin S; experiment: Cathepsin S digestion of the human PAR2 N-terminal peptide (LC/MS/MS); assay type: biochemical; settings: cathepsin S 1 µM, pH 7.0, 37°C, 20 minutes; MS/MS sequencing
Experimental: Recombinant human cathepsin S was produced as follows. The human cathepsin S proprotein coding region was isolated by PCR using the forward and reverse primers […] CCTG and […] and a template of plasmid DNA containing the entire coding sequence of human cathepsin S. The PCR product was cut with Nco I and Xho I, and cloned into the pTYB4 expression vector from New England Biolabs for expression in E.coli. Cells were grown in LB medium induced with 0.3 mM IPTG, harvested by centrifugation, resuspended in lysis buffer A (0.5 M NaCl, 0.05 M Tris, 5 mM EDTA, pH 8.0) and lysed in a French press. The lysate was centrifuged and the protein was found predominantly in inclusion bodies which were dissolved in buffer B (10 mM DTT and 8 M urea), and refolded in the presence of buffer B containing 0.7 M L-arginine, 0.01 M glutathione, 0.001 M glutathione disulfide, and 0.005 M EDTA as described. […] The specific activity of cathepsin S was assayed using Z-VVR-AMC in fluorimetric and Z-FR-pNA in colorimetric assays[22] and determined to be 10,000 mU/mg protein.
A peptide comprising the N-terminus of PAR2, […], was dissolved in 50 mM Tris, pH 7.0, 0.1 M NaCl, 0.1 mM EDTA, and 0.01% Tween-20 to a concentration of 100 mM. […] The reaction samples were analyzed by the Harvard Microchemistry & Proteomics Analysis Facility (Cambridge, MA). […]

[6] = tested on: PAR2; settings: cited from earlier work; for PAR2 activation (in words): in vitro, plant proteases
Text: PAR2 signaling has been implicated in the development of inflammatory and bowel diseases, asthma, itch and pain. The receptor is expressed on many types of cells including keratinocytes, sensory neurons, fibroblasts, endothelial cells, and inflammatory cells, [3]. Consistent with this broad expression, PAR2 is involved in numerous physiologic and pathophysiologic processes in response to both endogenous and exogenous proteases.

[7] = tested on: human PAR2; experiment: IP1 (IP-One HTRF) assay in PAR2-transfected HeLa cells; assay type: cell-based; settings: 1 hour, 37°C; KVDGTS 100 µM, SLIGRL 10 µM, cathepsin S 1 µM; KVDGTS and SLIGRL after subtracting baseline values; cathepsin S 'in this particular experiment'
Experimental: To determine the effect of PAR2 activation on Gq stimulation, we measured IP1, a downstream metabolite of IP3, using the IP-One HTRF assay from Cis Bio, Medford, MA. HeLa cells were transfected with salmon sperm DNA or PAR2 cDNA as described above, plated in 10 cm culture dishes and incubated at 37°C with 5% CO2. After 24 hours, the cells were trypsinized, counted, plated into 96-well plates at 80,000 cells/well and incubated for another 24 hours. The medium was replaced with a stimulation buffer containing LiCl, per the instructions of the manufacturer. Ligands, including cathepsin S (1 µM), KVDGTS (100 µM) and SLIGRL (10 µM) were added to wells and incubated at 37°C for 1 hour and IP1 levels determined. This assay was performed on multiple wells containing each ligand on three occasions. Error bars represent SEM.

Substance: trypsin [reference compound]
- PAR2 cleavage site preference (in words) [1]: cleave PAR2 primarily following arginine residues
- effect as first agent on calcium response to second agent (in words) ([2]; PAR2-transfected HeLa, KVDGTS 100 µM, cathepsin S 2 µM, papain 2 µM, trypsin 10 nM, second agent after up to 60 minutes, room temperature): failed to induce a calcium response at any time up to 60 minutes

Substance: LRGILS [reverse peptide of SLIGRL, negative control, reference compound]
- Concentration-effect curve, calcium-dependent response (in words) [2]: not active

Substance: SLIGKVDGTS [decapeptide which encompasses SLIGKV and KVDGTS]
- PKC Ser660 phosphorylation (in words) [3]: weaker effect
- Concentration-effect curve, calcium-dependent response (in words) [2]: curves for SLIGRL and SLIGKVDGTS overlapped; also recorded: activity comparable to that of SLIGRL

Substance: IFN-γ: mediator of inflammation
- induction of cathepsin S (in words) [4]: potent inducer of cathepsin S in keratinocytes

Substance: KVDGTSHVTGKGVT
- cleavage points (in words) [5]: next most common sequence results in G at the P1 position

Substance: SLIGRL [positive control, reference compound]
- PKC Ser660 phosphorylation (in words) [3]: weaker effect
- intracellular calcium mobilization (in words) ([6]; primary keratinocytes and various cell lines, no reference given): provokes transient intracellular calcium mobilization
- calcium response to the substance as second agent after protease (in words) ([2]; PAR2-transfected HeLa, after cathepsin S, papain or trypsin, up to 60 minutes, room temperature): failed to induce a calcium response at any time up to 60 minutes
- Concentration-effect curve, calcium-dependent response (in words) [2]: curves for SLIGRL and SLIGKVDGTS overlapped
- concentration at which active/effective ([2]; summary of these studies (discussion)): 10 µM
- IP1 level [7]: ~66 nM

Substance: ficin
- PAR2 activation (in words) [6]: supporting activation

Substance: bromelain
- PAR2 activation (in words) [6]: supporting activation

Substance: STGDVK [KVDGTS reverse peptide, reference compound]
- Concentration-effect curve, calcium-dependent response (in words) [2]: not active
